We go through one compound from publication PMC6882492, “Synthesis and biological evaluation of novel thienopyrimidine derivatives as diacylglycerol acyltransferase 1 (DGAT-1) inhibitors” (Journal of Enzyme Inhibition and Medicinal Chemistry, 2019).

One data set addresses T1, hDGAT1 (Homo sapiens, UniProt O75907).
T1 sequence (O75907 1-488): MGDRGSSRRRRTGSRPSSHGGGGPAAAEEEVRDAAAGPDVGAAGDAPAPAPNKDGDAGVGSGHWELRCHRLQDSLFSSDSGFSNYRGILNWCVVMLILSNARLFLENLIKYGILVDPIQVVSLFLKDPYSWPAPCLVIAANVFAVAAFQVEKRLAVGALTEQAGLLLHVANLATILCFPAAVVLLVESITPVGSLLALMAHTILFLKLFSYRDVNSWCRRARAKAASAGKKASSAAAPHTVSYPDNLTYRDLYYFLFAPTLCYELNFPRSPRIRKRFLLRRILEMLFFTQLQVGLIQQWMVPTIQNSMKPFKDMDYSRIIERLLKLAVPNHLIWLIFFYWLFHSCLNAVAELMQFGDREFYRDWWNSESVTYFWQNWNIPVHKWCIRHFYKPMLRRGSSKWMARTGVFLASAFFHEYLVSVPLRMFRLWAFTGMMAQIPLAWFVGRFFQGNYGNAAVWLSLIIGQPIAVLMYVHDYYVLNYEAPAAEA
As to the kind of experiment: Enzymatic assay hDGAT1. The class given is biochemical. From the text:
(§1) ACATs have sequence homology to DGAT-1 and play essential roles in cholesterol homeostasis. 17b was not explored in the enzymatic assays due to its poor pharmacokinetic profile.

For the next data set, the target named is T2, hACAT1 (Homo sapiens, UniProt P35610).
T2 sequence (P35610 1-550): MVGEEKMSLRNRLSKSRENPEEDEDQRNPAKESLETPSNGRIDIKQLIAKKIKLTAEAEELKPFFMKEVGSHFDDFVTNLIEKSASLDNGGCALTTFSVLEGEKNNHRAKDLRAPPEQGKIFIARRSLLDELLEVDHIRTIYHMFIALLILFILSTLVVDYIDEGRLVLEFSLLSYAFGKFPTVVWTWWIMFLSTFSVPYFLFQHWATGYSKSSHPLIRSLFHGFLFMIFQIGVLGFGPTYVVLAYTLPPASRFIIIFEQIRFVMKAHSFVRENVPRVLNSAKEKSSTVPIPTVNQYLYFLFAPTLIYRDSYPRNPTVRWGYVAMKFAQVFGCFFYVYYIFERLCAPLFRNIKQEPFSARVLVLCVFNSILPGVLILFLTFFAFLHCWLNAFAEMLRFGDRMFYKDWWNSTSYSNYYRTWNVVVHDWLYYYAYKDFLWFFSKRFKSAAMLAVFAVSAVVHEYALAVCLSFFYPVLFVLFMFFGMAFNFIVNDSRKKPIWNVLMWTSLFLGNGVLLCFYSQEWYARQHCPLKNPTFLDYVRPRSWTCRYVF
As to the kind of experiment: Enzymatic assay hACAT1. The class given is biochemical.
Source text: as §1

For a further data set, the target named is T3, CYP1A2 (Homo sapiens, UniProt P05177).
T3 sequence (P05177 1-516): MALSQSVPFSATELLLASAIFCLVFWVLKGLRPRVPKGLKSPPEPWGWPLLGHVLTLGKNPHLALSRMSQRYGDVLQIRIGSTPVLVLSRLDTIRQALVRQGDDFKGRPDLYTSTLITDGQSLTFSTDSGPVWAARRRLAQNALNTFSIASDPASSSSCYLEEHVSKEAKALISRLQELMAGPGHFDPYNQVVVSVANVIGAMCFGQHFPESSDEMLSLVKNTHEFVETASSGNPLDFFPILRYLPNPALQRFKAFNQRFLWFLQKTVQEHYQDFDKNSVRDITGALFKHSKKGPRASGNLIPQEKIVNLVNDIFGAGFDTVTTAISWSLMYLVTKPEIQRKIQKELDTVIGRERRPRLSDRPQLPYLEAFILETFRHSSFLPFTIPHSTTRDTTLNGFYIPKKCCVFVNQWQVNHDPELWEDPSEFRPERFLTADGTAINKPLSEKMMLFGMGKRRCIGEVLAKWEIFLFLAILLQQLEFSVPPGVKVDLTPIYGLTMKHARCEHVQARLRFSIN
As to the kind of experiment: CYP inhibition assay CYP1A2. The class given is in vitro ADME. The following applies: fluorescence detection method; read-out: CYPs enzyme inhibition, IC50, CYP1A2.

Another data set addresses CYP2C9 (Homo sapiens, UniProt P11712). As to the kind of experiment: CYP inhibition assay CYP2C9. The following applies: fluorescence detection method; read-out: CYPs enzyme inhibition, IC50, CYP2C9. The class given is in vitro ADME.
In the next data set the target is CYP2C19 (Homo sapiens, UniProt P33261). As to the kind of experiment: CYP inhibition assay CYP2C19. The class given is in vitro ADME. Particulars: fluorescence detection method; read-out: CYPs enzyme inhibition, IC50, CYP2C19.
CYP2C19, sequence (P33261 whole entry): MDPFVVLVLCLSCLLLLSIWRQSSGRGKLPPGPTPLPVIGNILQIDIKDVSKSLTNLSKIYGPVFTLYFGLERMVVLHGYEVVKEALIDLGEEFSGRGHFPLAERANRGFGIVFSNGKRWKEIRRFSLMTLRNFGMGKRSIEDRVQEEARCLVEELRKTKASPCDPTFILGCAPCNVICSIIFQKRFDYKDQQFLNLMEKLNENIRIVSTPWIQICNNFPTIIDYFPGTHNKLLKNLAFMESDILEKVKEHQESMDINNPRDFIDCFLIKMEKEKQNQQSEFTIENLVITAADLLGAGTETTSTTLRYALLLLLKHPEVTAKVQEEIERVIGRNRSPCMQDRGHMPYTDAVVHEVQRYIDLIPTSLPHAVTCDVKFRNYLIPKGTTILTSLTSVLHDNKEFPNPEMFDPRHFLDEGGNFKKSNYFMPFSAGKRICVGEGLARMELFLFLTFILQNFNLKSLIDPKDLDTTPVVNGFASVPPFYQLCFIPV
In the next data set the target is CYP2D6 (Homo sapiens, UniProt P10635). As to the kind of experiment: CYP inhibition assay CYP2D6. The class given is in vitro ADME. Particulars: fluorescence detection method; read-out: CYPs enzyme inhibition, IC50, CYP2D6.
CYP2D6, sequence (P10635 whole entry): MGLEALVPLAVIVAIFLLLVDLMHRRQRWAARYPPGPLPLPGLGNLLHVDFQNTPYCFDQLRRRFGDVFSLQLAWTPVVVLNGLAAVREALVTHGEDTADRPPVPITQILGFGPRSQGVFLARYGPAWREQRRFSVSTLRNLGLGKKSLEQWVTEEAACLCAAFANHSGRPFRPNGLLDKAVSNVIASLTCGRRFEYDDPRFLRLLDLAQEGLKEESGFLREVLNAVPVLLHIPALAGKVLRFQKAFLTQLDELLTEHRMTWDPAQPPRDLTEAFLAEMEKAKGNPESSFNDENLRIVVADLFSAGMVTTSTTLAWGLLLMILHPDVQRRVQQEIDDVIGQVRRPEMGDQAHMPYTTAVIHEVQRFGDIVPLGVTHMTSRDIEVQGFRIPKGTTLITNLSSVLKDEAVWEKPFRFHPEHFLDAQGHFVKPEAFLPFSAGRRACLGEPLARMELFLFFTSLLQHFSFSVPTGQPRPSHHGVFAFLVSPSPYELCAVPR
The test system of a further data set is plasma TAG level. As to the kind of experiment: Oral lipid tolerance test (OLTT), mouse. The class given is in vivo. Particulars: ICR mice, 17a 3 mg/kg po before corn oil, n = 5. The procedure:
Male, Institute of Cancer Research (ICR) mice were obtained from OrientBio Inc. (Republic of Korea). ICR mice (8-weeks old, n = 5/group) fasted 16 h, received 5 mL/kg corn oil via oral administration (p.o.) 30 min after compound administration. Plasma was collected at different time points (0, 1, 2, and 4 h).
To determine in vivo efficacy, we evaluated the activity of 17a against serum TAG level induced by the oral administration of corn oil (oral lipid tolerance test, OLTT; Figures 3 and 4), since intestinal targeted DGAT-1 inhibition results in a reduced serum TAG level. 17a was orally administered to ICR mice at 3 mg/kg or to dogs at 1 mg/kg before administration of corn oil.
Figure 3. Effect of 17a in the oral lipid tolerance test (n = 5, ***p < .001). Serum TG (or TAG) concentration was measured before and 1, 2, and 4 h after oral administration of corn oil in ICR mice treated with 17a (3 mg/kg) or 2 (1 mg/kg). Vehicle for 2: 0.5% methylcellulose/0.5% Tween80 in distilled water, vehicle for 17a: 0.5% Tween80 in distilled water.

Data set [1] can be described thus: Tissue distribution in mice. The class given is in vivo. The following applies: ICR mice, 30 mg/kg oral, n = 3. The procedure: In addition, tissue distribution of 17a was investigated. 17a was orally administered to mice at 30 mg/kg, and 2 was administrated as a positive control (Figure 5). […] Significant activity of 17a in the OLTT appeared to result from high concentration in the small intestine, even though bioavailability of 17a was not great in mice.
Figure 5. Tissue distribution of 17a in mice. 17a and 2 were orally administered to ICR mice at 30 mg/kg (n = 3). (a) AUC values of 17a and 2 in indicated tissues. […] Data represent mean value. (b) Tissue-to-plasma (T/P) ratio of 17a and 2. S.I.: small intestine, L.I.: large intestine.

Some results are limits rather than exact numbers.

CYP2C9, sequence (P11712 whole entry): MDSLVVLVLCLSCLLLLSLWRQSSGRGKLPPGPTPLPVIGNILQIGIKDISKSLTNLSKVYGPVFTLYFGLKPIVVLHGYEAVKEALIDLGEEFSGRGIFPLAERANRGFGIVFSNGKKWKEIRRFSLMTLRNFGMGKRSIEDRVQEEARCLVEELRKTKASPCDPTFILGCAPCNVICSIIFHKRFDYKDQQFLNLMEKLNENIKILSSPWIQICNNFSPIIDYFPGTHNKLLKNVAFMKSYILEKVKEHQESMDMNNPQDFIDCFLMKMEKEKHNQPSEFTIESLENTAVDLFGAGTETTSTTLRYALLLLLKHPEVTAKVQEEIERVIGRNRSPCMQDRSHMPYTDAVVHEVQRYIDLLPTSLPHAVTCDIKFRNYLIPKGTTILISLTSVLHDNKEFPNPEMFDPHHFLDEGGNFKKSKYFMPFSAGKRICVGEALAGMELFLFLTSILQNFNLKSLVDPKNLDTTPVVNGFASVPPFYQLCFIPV

As usually defined, the IC50 is the concentration at which inhibition is half-maximal. For the compound `O=C([O-])C[C@H]1CC[C@@H](c2csc3c(-c4ccc(NC(=O)Nc5cccc(Cl)c5)cc4)ncnc32)CC1.[Na+]` [Compound 17a, Sodium cis-2–(4–(4-(4-(3–(3-chlorophenyl)ureido)phenyl)thieno[3,2-d]pyrimidin-7-yl)cyclohexyl)acetate], the IC50 at hDGAT1 is 0.061 µM; at hACAT1, > 10 µM; at CYP1A2, 10.6 µM; at CYP2C9, 2.9 µM; at CYP2C19 it was > 20 µM; at CYP2D6, 8.7 µM. Moreover, the “Reduction of plasma TAG level in OLTT” value in the data set with plasma TAG level is “significant activity, as potent as compound 2”. In addition, the “Tissue distribution (concentration levels in tissues)” value in data set [1] is “in the liver and small intestine were much higher than in other tissues”.
